Source: patent publication US20230052740A1, “MODULATORS OF CIRCADIAN RHYTHMS AND USES THEREOF” (The Regents of the University of California, priority 2019, published 2023)
Where two headings read alike, the source gives them in different places.

Tests used:
MT2 = biological target: T1, MT2 (Homo sapiens, UniProt P49286); experiment: cAMP assay (GloSensor), isoproterenol-stimulated cAMP in HEK cells; format: cell-based; set-up: expressed in transfected cells; host or cells: HEK-T (HEK-293 T) cells, co-transfected with GloSensor DNA; MT2 activity: dose or concentration left out as unconfirmed
T1 sequence (P49286 1-362): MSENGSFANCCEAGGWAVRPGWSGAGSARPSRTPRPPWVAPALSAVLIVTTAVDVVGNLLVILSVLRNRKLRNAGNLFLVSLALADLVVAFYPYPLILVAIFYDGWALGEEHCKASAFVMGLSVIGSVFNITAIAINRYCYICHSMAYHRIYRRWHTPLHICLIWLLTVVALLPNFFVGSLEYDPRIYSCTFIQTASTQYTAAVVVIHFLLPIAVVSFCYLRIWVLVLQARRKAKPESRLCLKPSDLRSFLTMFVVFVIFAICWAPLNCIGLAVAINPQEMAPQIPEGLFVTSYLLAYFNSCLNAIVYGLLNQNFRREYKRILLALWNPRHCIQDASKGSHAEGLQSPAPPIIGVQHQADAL
Procedure: MT1 and MT2 receptors were tested using Promega's spilt luciferase based GboSensor cAMP biosensor technology. HEK-T cells were plated in 15 cm cell culture dish (at a density of 18 million cells) containing DMEM composed of 10% dialyzed FBS, 2 mM L-glutamine, 100 units/ml penicillin G, 100 μg/ml streptomycin for 4-6 hour. Then, cells were co-transfected with 8 μg of construct which encodes either MT1 or MT2 (de-Tangonized constructs) and […] of Glosensor DNA. […] The next day, cell medium were discarded and loaded with 20 μl of assay buffer (1×HBSS, 20 mM HEPES, pH 7.4, 0.1% BSA). To measure agonist activity of MT1 or MT2 receptor, 10 μl of test compound solution at 3× final concentration was added for 15 minutes followed by addition of 10 μl of luciferin/isoproterenol mixture (at a final concentration of 4 mM and 200 nM respectively) for another 15 mins for luminescence quantification. Then, plates were counted using SpectraMax luminescence reader (Molecular Device). Data were analyzed using GraphPad Prism 6.0.

hMT1 = hMT1 (Homo sapiens, UniProt P48039); experiment: as above; format: cell-based; set-up: expressed in transfected cells; host or cells: HEK-T (HEK-293 T) cells, co-transfected with GloSensor DNA
hMT1, sequence (P48039 whole entry): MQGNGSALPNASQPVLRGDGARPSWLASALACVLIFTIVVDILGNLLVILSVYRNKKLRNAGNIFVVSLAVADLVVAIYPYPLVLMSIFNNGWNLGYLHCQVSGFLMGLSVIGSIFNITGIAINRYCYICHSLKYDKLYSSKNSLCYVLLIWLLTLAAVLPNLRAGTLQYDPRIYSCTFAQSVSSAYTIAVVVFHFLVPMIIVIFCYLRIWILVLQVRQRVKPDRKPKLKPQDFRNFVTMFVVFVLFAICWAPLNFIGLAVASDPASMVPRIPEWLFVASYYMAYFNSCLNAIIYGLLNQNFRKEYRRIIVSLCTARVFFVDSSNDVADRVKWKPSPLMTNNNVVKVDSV
Procedure: HEK-293 T cells were maintained with complete Dulbecco's modified Eagle's medium (DMEM), which is composed of 10% fetal bovine serum (FBS), 2 mM L-glutamine, 100 units/ml penicillin G, 100 μg/ml streptomycin at 37° C. in the presence of 5% CO2
MT1 and MT2 receptors were tested using Promega's spilt luciferase based GboSensor cAMP biosensor technology. HEK-T cells were plated in 15 cm cell culture dish (at a density of 18 million cells) containing DMEM composed of 10% dialyzed FBS, 2 mM L-glutamine, 100 units/ml penicillin G, 100 μg/ml streptomycin for 4-6 hour. Then, cells were co-transfected with 8 μg of construct which encodes either MT1 or MT2 (de-Tangonized constructs) and […] of Glosensor DNA. Next day, transfected cells were seeded into poly-L-lysinecoated 384-well white clear bottom cell culture plates with complete DMEM with 1% dialized FBS at a density of 20,000 cells per well for another 24 h. The next day, cell medium were discarded and loaded with 20 μl of assay buffer (1×HBSS, 20 mM HEPES, pH 7.4, 0.1% BSA). To measure agonist activity of MT1 or MT2 receptor, 10 μl of test compound solution at 3× final concentration was added for 15 minutes followed by addition of 10 μl of luciferin/isoproterenol mixture (at a final concentration of 4 mM and 200 nM respectively) for another 15 mins for luminescence quantification. Then, plates were counted using SpectraMax luminescence reader (Molecular Device). Data were analyzed using GraphPad Prism 6.0.

[1] = panel of widely-used MTR ligands
[2] = panel of widely-used MTR ligands, in words
[3] = HEK293, Table 6, Inverse (inverse agonist), read-out: MT1 Emax
[4] = Table 6, Inverse (inverse agonist), read-out: MT1 pEC50 (converted)
[5] = HEK293, Table 2, agonist, normalized to melatonin response, read-out: MT1 % Emax (converted)
[6] = HEK293, Table 2, agonist, normalized to melatonin response, read-out: MT2 % Emax (converted)
[7] = HEK293, Table 2, cell marked Inverse (inverse agonist), read-out: MT1 % Emax (converted)
[8] = Table 2, cell marked Inverse (inverse agonist)
[9] = HEK293, Table 2, cell marked Inverse (inverse agonist), read-out: MT2 % Emax (converted)
[10] = HEK293, Table 1, agonist, normalized to melatonin response, read-out: MT1 % Emax (converted)
[11] = Table 1, agonist, normalized to melatonin response

SMILES: COc1ccc(C2CC2)c(CNc2cccnc2)c1
- Emax (MT2; HEK293, Table 5, read-out: MT2 Emax): 75 ± 5%
- EC50 (MT2; Table 5, MT2 receptor agonists, read-out: MT2 pEC50 (converted)): 1.82 nM

SMILES: CCC(=O)NC1Cc2ccccc2C(c2ccccc2)C1 (centres unmarked) [Compound 4P-PDOT, reference compound]
- MT2 selectivity (agonist) (MT2; [1]): 150 fold

SMILES: CCC(=O)NC1CCc2cccc(OC)c2C1 (centres unmarked) [Compound 8M-PDOT, reference compound]
- type selectivity (MT2; [2]): little type selectivity

SMILES: c1cc(NCc2ccc(C3CCC3)nc2)cc(-c2cc[nH]n2)c1 [Compound Z3668902476]
- Emax (hMT1; [3]): 30%
- EC50 (hMT1; [4]): 75.9 nM

SMILES: Cc1nc(-c2cccc(NCc3ncc(Cl)cc3Br)c2)n[nH]1 [Compound Z3668902489]
- Emax (hMT1; [3]): 47%
- EC50 (hMT1; [4]): 245 nM

SMILES: CCCCC(=O)NCCc1c(Cc2ccccc2)[nH]c2ccccc12 [DH97, reference compound]
- efficacy at the MT2 receptor (MT2; [2]): partial agonism

SMILES: CC(=O)NCCc1c(Cc2ccccc2)[nH]c2ccccc12 [Luzindole, reference compound]
- efficacy at the MT2 receptor (MT2; [2]): partial agonism

SMILES: CC(=O)NCCc1c[nH]c2ccccc12 [N-acetyl tryptamine, reference compound]
- MT2 selectivity (agonist) (MT2; [1]): 39 fold

SMILES: COc1ccc(CNc2cccnc2)cc1 [ZINC5586789]
- Emax (hMT1; [5]): 37%
- MT1 pEC50 (hMT1; Table 2, agonist): 6.81 ± 0.72
- Emax (MT2; [6]): 51%
- MT2 pEC50 (MT2; Table 2, agonist): 8.07 ± 0.15

SMILES: Cc1nnc(-c2cccc(NCc3ccc(Cl)cc3)c2)[nH]1 [ZINC37781620]
- Emax (hMT1; [7]): 19%
- MT1 pEC50 (hMT1; [8]): 7.90 ± 0.90
- Emax (MT2; [9]): 120%
- MT2 pEC50 (MT2; [8]): 6.20 ± 0.10

SMILES: COc1ccc(CNc2cccnc2C)cc1C [ZINC91496083]
- Emax (hMT1; [5]): 66%
- MT1 pEC50 (hMT1; Table 2, agonist): 4.65 ± 0.44
- Emax (MT2; [6]): 106%
- MT2 pEC50 (MT2; Table 2, agonist): 7.15 ± 0.17

SMILES: COC(=O)c1sc(N(C)Cc2ccc(Cl)nc2)nc1Cl [ZINC92585174]
- Emax (hMT1; [10]): 98%
- MT1 pEC50 (hMT1; Table 1, agonist): 7.80 ± 0.17
- Emax (MT2; HEK293, Table 1, agonist, normalized to melatonin response, read-out: MT2 % Emax (converted)): 74%

SMILES: COc1ccc(CN(C(=O)c2ccccc2F)c2ccncc2)cc1 [ZINC151192780]
- Emax (hMT1; [5]): 54%
- MT1 pEC50 (hMT1; Table 2, agonist): 5.18 ± 0.22
- selectivity for MT2 over MT1 (MT2; FIG. 7 analogs of '9032): 200 fold
- Emax (MT2; [6]): 95%
- MT2 pEC50 (MT2; Table 2, agonist): 7.13 ± 0.12

SMILES: COc1ccc(CN(C(=O)C2CC2C)c2ccncc2)cc1 (centres unmarked) [ZINC151209032]
- Emax (hMT1; [10]): 88%
- EC50 (hMT1; agonist, read-out: EC50 at MT1): 2000 to 6000 nM
- MT2 activity (MT2): without detectable MT2 activity

SMILES: COc1ccc(CNc2cccc(-c3nnc[nH]3)c2)cc1 [ZINC157665999]
- Emax (hMT1; [10]): 63%
- MT1 pEC50 (hMT1; Table 1, agonist): 4.89 ± 0.38
- EC50 (hMT1; agonist, read-out: EC50 at MT1): 10000 nM
- Emax (MT2; HEK293, Table 1, cell marked Inverse (inverse agonist), read-out: MT2 % Emax (converted)): 90%
- MT2 pEC50 (MT2; Table 1, cell marked Inverse (inverse agonist)): 7.29 ± 0.16
- EC50 (MT2; inverse agonist, read-out: EC50 at MT2): 50 nM

SMILES: Clc1ccc(CNc2cccc(-c3nnc[nH]3)c2)c(Cl)c1 [ZINC157676497]
- Emax (hMT1; [7]): 60%
- MT1 pEC50 (hMT1; [8]): 7.32 ± 0.05
- Emax (MT2; [9]): 62%
- MT2 pEC50 (MT2; [8]): 6.01 ± 0.30

SMILES: COC(=O)c1ccc(CSc2nnc(C3CC3)[nH]2)s1 [ZINC159050207]
- selectivity for the MT1 v. the MT2 receptor type (hMT1): 2 fold
- MT1 % Emax (hMT1; [11]): 99 ± 1%
- Emax(%) at MT1 (hMT1; agonist): 99±1%
- pEC50 at MT1 (hMT1; agonist): 9.00±0.15
- MT2 % Emax (MT2; [11]): 83 ± 3%

SMILES: COc1cccc2c1CCN(C(=O)c1ccc(F)nc1)C2 [ZINC182731037]
- Emax (hMT1; [10]): 82%
- MT1 pEC50 (hMT1; Table 1, agonist): 5.30 ± 0.09
- EC50 (hMT1; agonist, read-out: EC50 at MT1): 2000 to 6000 nM
- MT2 activity (MT2): without detectable MT2 activity
